In the experiment the test system is Aβ 42 production. The experiment in a line: Quantification of Aβ Peptide in Culture of Neurons from Rat Fetus Brain. It counts as cell-based. Particulars: Neuron, 72 h; rat primary neuronal culture (cerebral cortex, embryonic day 18 Wistar rats); medium collected three days after addition of the compound; Aβ ELISA; read-out: Effect of reducing Aβ 42 production IC50. How it is done: Quantification of Aβ Peptide in Culture of Neurons from Rat Fetus Brain
(1) Rat Primary Neuronal Culture
Primary neuronal cultures were prepared from the cerebral cortex of embryonic day 18 Wistar rats (Charles River Japan, Yokohama, Japan). Specifically, the embryos were aseptically removed from pregnant rats under ether anesthesia. The brain was isolated from the embryo and immersed in an ice-cold L-15 medium (Invitrogen Corp. Cat #11415-064, Carlsbad, Calif., USA, or SIGMA L1518, for example). The cerebral cortex was collected from the isolated brain under a stereoscopic microscope. The cerebral cortex fragments collected were enzymatically treated in an enzyme solution containing 0.25% trypsin (Invitrogen Corp. Cat #15050-065, Carlsbad, Calif., USA) and 0.01% DNase (Sigma D5025, St. Louis, Mo., USA) at 37° C. for 30 minutes to disperse the cells. Here, the enzymatic reaction was stopped by adding inactivated horse serum to the solution. The enzymatically treated solution was centrifuged at 1,500 rpm for five minutes to remove the supernatant. 5 to 10 ml of a medium was added to the resulting cell mass. Neurobasal medium (Invitrogen Corp. Cat #21103-049, Carlsbad, Calif., USA) supplemented with 2% B27 supplement (Invitrogen Corp. Cat #17504-044, Carlsbad, Calif., USA), 25 μM 2-mercaptoethanol (2-ME, WAKO Cat #139-06861, Osaka, Japan), 0.5 mM L-glutamine (Invitrogen Corp. Cat #25030-081, Carlsbad, Calif., USA), and Antibiotics-Antimycotics (Invitrogen Corp. Cat #15240-062, Carlsbad, Calif., USA) was used as the medium (Neurobasal/B27/2-ME). However, the above Neurobasal medium not supplemented with 2-ME (Neurobasal/B27) was used for the assay. The cells were redispersed by mild pipetting of the cell mass to which the medium was added. The cell dispersion was filtered through a 40-μm nylon mesh (Cell Strainer, Cat #35-2340, Becton Dickinson Labware, Franklin Lakes, N.J., USA) to remove the remaining cell mass, and thus a neuronal cell suspension was obtained. The neuronal cell suspension was diluted with the medium and then plated in a volume of 100 μl/well at an initial cell density of 5×10^5 cells/cm^2 in a 96-well polystyrene culture plate pre-coated with poly-L or D-lysine (Falcon Cat #35-3075, Becton Dickinson Labware, Franklin Lakes, N.J., USA coated with poly-L-lysine using the method shown below, or BIOCOAT™ cell environments Poly-D-lysine cell ware 96-well plate, Cat #35-6461, Becton Dickinson Labware, Franklin Lakes, N.J., USA). Poly-L-lysine coating was carried out as follows. 100 μg/ml of a poly-L-lysine (SIGMA P2636, St. Louis, Mo., USA) solution was aseptically prepared with a 0.15 M borate buffer (pH 8.5). 100 μl/well of the solution was added to the 96-well polystyrene culture plate and incubated at room temperature for one or more hours or at 4° C. overnight or longer. The coated 96-well polystyrene culture plate was washed with sterile water four or more times, and then dried or rinsed with, for example, sterile PBS or medium, and used for cell plating. The plated cells were cultured in the culture plate at 37° C. in 5% CO2-95% air for one day. Then, the total amount of the medium was replaced with a fresh Neurobasal™/B27/2-ME medium, and then the cells were cultured for further three days.
The drug was added to the culture plate on Day 4 of culture as follows. The total amount of the medium was removed from the wells, and 180 μl/well of Neurobasal medium not containing 2-ME and containing 2% B-27 (Neurobasal/B27) was added thereto. A solution of the test compound in dimethyl sulfoxide (hereinafter abbreviated as DMSO) was diluted with Neurobasal/B27 at 10-fold of the final concentration. 20 μl/well of the dilution was added to and sufficiently mixed with the medium. The final DMSO concentration was 1% or less. Only DMSO was added to the control group.
The cells were cultured for three days after addition of the compound, and the total amount of the medium was collected. […]
For orientation: In an ELISA, binding on a coated surface is turned into a signal by an enzyme label.
The term IC50 denotes the midpoint of a concentration-inhibition curve. With `COc1cc(/C=C/c2nc(-c3ccc(F)cc3)c3n2CCNC3=O)ccc1-n1cnc(C)c1` [Example 10, 1-(4-fluorophenyl)-3-{(E)-2-[3-methoxy-4-(4-methyl-1H-imidazol-1-yl)phenyl]vinyl}-6,7-dihydro-5H-imidazo[1,5-a]pyrazin-8-one], the IC50 was found to be 130 nM.
As to `COc1cc(/C=C/c2nc(-c3ccc(F)cc3)c3n2CCOC3)ccc1-n1cnc(C)c1` [Example 13, 1-(4-fluorophenyl)-3-{(E)-2-[3-methoxy-4-(4-methyl-1H-imidazol-1-yl)phenyl]vinyl}-5,6-dihydro-8H-imidazo[5,1-c][1,4]oxazine], the IC50 was 170 nM.
Under `COc1cc(/C=C/c2nc(-c3ccc(F)cc3)c3n2CCN(C)C3)ccc1-n1cnc(C)c1` [Example 15, 1-(4-fluorophenyl)-3-{(E)-2-[3-methoxy-4-(4-methyl-1H-imidazol-1-yl)phenyl]vinyl}-7-methyl-5,6,7,8-tetrahydroimidazo[1,5-a]pyrazine] stands 180 nM.
Under `COc1cc(/C=C/c2nnc(Cc3ccc(F)cc3)[nH]2)ccc1-n1cnc(C)c1` [Example 17, 3-(4-fluorobenzyl)-5-{(E)-2-[3-methoxy-4-(4-methyl-1H-imidazol-1-yl)phenyl]vinyl}-4H-[1,2,4]triazole] stands 58 nM; under `COc1cc(/C=C2\CCCn3c(-c4ccc(F)cc4)cnc32)ccc1-n1cnc(C)c1` [Example 18, 3-(4-fluorophenyl)-8-{1-[3-methoxy-4-(4-methyl-1H-imidazol-1-yl)phenyl]-(E)-methylidene}-5,6,7,8-tetrahydroimidazo[1,2-a]pyridine], 170 nM.
For the compound `COC(=O)c1nc2n(c1-c1ccc(F)cc1)CCC/C2=C\c1ccc(-n2cnc(C)c2)c(OC)c1` [Example 21, methyl 3-(4-fluorophenyl)-8-{1-[3-methoxy-4-(4-methyl-1H-imidazol-1-yl)phenyl]-(E)-methylidene}-5,6,7,8-tetrahydroimidazo[1,2-a]pyridine-2-carboxylate], the IC50 came to 41 nM.
In the case of `COC(=O)c1c(-c2ccc(F)cc2)nc2n1CCC/C2=C\c1ccc(-n2cnc(C)c2)c(OC)c1` [Example 22, methyl 2-(4-fluorophenyl)-8-{1-[3-methoxy-4-(4-methyl-1H-imidazol-1-yl)phenyl]-(E)-methylidene}-5,6,7,8-tetrahydroimidazo[1,2-a]pyridine-3-carboxylate] it was 170 nM; in that of `COc1cc(/C=C2\CCCn3c2nc(CO)c3-c2ccc(F)cc2)ccc1-n1cnc(C)c1` [Example 23, {3-(4-fluorophenyl)-8-{1-[3-methoxy-4-(4-methyl-1H-imidazol-1-yl)phenyl]-(E)-methylidene}-5,6,7,8-tetrahydroimidazo[1,2-a]pyridin-2-yl}methanol], 60 nM; in that of `COc1cc(/C=C/c2nnc(CCc3ccc(F)cc3)[nH]2)ccc1-n1cnc(C)c1` [Example 32, 3-[2-(4-fluorophenyl)ethyl]-5-{(E)-2-[3-methoxy-4-(4-methyl-1H-imidazol-1-yl)phenyl]vinyl}-4H-[1,2,4]triazole], 62 nM.
Regarding `COc1cc(/C=C/c2nc(C(C)c3ccccc3)n(C)n2)ccc1-n1cnc(C)c1` (stereo not drawn) [Example 45, 3-{(E)-2-[3-methoxy-4-(4-methyl-1H-imidazol-1-yl)phenyl]vinyl}-1-methyl-5-(1-phenylethyl)-1H-[1,2,4]triazole], the IC50 came to 85 nM.
Under `COc1cc(/C=C/c2nnc(C(C)(C)c3ccccc3)[nH]2)ccc1-n1cnc(C)c1` [Example 49, 3-{(E)-2-[3-methoxy-4-(4-methyl-1H-imidazol-1-yl)phenyl]vinyl}-5-(1-methyl-1-phenylethyl)-4H-[1,2,4]triazole] stands 63 nM; under `COc1cc(/C=C/c2nc3n(n2)CCC[C@@H]3c2ccc(OC(F)(F)F)cc2)ccc1-n1cnc(C)c1` [Example 129, (−)-2-{(E)-2-[3-methoxy-4-(4-methyl-1H-imidazol-1-yl)phenyl]vinyl}-8-(4-trifluoromethoxyphenyl)-5,6,7,8-tetrahydro[1,2,4]triazolo[1,5-a]pyridine], 17 nM.

Values taken from patent US7973033B2, “Multi-cyclic cinnamide derivatives” (Eisai R&D Management Co., Ltd., priority 2006, dated 2011).
